Laboratory results taken from paper PMC10354055, “An optimized Nurr1 agonist provides disease-modifying effects in Parkinson’s disease models” (Nature Communications, 2023).
“And” between values parts separate entries of the source, which are not always exact repeats. Equal entries are not always repeated.

What was measured:
[1] = biological target: Nurr1-LBD (Homo sapiens, UniProt P43354); assay: [3H]-CQ radioligand competition binding assay; conditions: Fig. 1h
Method: Saturation and competition assays were performed as previously described. For saturation assay, 0.2 µM of Nurr1-LBD and 125-10,000 nM of [^3H]-CQ were incubated in binding buffer (20 mM sodium acetate buffer (pH 5.2)) at 4 °C overnight. […] Assay mixtures were applied to GF/B filters (Brandel Inc.) to capture Nurr1-LBD bounded ligands. […] All graphs and IC50 values were generated using the non-linear regression program in GraphPad Prism version 8.0.2.

[2] = test system: Nurr1 mRNA; assay: Nurr1 mRNA level, qRT-PCR, MN9D cells; type: cell-based, mouse; conditions: MPP+ or αSyn overexpression
Method: Total RNA was extracted using the GeneJET RNA Purification Kit (Thermo Fisher Scientific) and 100 ng of RNA was subjected to cDNA synthesis using Invitrogen Superscript cDNA Synthesis Kit (Invitrogen) according to the manufacturer’s protocol. qRT-PCR was performed using a CFX Connect Real-Time System (Bio-Rad) in a 20 μl volume mixture containing 2X SsoAdvanced Universal SYBR Green Supermix (Bio-Rad), 100 ng/μl of forward and reverse primers, and 1 μl of cDNA sample. Gene expression levels were quantified by the 2^∆∆CT method (Ct of target gene—Ct of glyceraldehyde-3-phosphate dehydrogenase (GAPDH). The following primers were used for qRT-PCR: TH forward: 5′-[…]-3′, reverse: 5′-[…]-3′; DAT forward: 5′-[…]-3′, reverse: 5′-[…]-3′; AADC forward: 5′-[…]-3′, reverse: 5′-[…]-3′; VMAT2 forward: 5′-[…]-3′, reverse: 5′-[…]-3′; c-Ret forward: 5′-[…]-3′, reverse: 5′-[…]-3′; TNFα forward: 5′-[…]-3′; reverse: 5′-[…]-3′; GAPDH, forward 5′-[…]-3′, reverse 5′-[…]-3′.
Lenti-GFP, -αSyn^WT, and -αSyn^A53T viruses were generated separately by co-transfecting each shuttle plasmid with lentivirus packaging plasmids into HEK293T cells using lipofectamine 2000 (Invitrogen). Briefly, 2 μg each FUW inducible shuttle plasmid, 2 μg FUW-rtTA, 2 μg psPax2 and 1.5 μg MD2.G were mixed and transfected into HEK293T cells. After 48 h, viral supernatants were collected and centrifuged at 1000g for 10 min, and subsequently filtered through a 0.45 μm filter. Lentiviruses were transduced into MN9D cells with 8 μg/ml of polybrene and the viral supernatant was removed and replaced with fresh medium a day after transduction.

Sequence of Nurr1-LBD (P43354 360-595 limits assumed, species assumed): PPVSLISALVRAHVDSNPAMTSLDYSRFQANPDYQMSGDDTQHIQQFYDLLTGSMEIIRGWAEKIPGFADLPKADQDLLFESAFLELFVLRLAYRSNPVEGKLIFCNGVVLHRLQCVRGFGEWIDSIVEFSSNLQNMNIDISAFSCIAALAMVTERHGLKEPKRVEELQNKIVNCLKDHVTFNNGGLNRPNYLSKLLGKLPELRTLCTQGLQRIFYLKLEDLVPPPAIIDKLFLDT

For CCN(CC)CCCC(C)Nc1ccnc2cc(Cl)ccc12 (stereo not shown) [CQ, chloroquine], the “% of Specific binding” value ([1]; competitor conc. 0.0001 (µM)) was 118.1264% and 84.3678% and 87.5058%, the “% of Specific binding” value ([1]; competitor conc. 0.001 (µM)) was 105.0129% and 88.1206% and 97.7170% and the “% of Specific binding” value ([1]; competitor conc. 0.01 (µM)) was 86.0400% and 103.1100% and 99.0600%. For the same molecule, the “% of Specific binding” value ([1]; competitor conc. 0.1 (µM)) was 92.2329% and 89.2060% and 101.4170%, the “% of Specific binding” value ([1]; competitor conc. 1 (µM)) was 91.1049% and 87.6783% and 85.5188% and the “% of Specific binding” value ([1]; competitor conc. 10 (µM)) was 73.9055% and 78.9516% and 86.9689%. For the same molecule, the “% of Specific binding” value ([1]; competitor conc. 100 (µM)) was 60.9070% and 71.4020% and 69.8520%, the “% of Specific binding” value ([1]; competitor conc. 1000 (µM)) was 61.7083% and 49.9850% and 61.0054% and the “% of Specific binding” value ([1]; competitor conc. 10000 (µM)) was 29.9520% and 33.4512% and 36.5796%. For the same molecule, the “% of Specific binding” value ([1]; competitor conc. 100000 (µM)) was 19.5396% and 23.9835% and 21.7371%, the “% of Specific binding” value ([1]; competitor conc. 1000000 (µM)) was 14.1307% and 7.3236% and 10.4343% and the IC50 ([1]; competition with [3H]-CQ) was 1030 nM and 1000 nM. For the same molecule, the “Nurr1 mRNA levels (in words)” value [2] was “did not alter”.
